Experimental data published in patent US20190000789A1, “COMPOSITION AND METHOD FOR TREATING INFECTIONS CAUSED BY VANCOMYCIN-RESISTANT INFECTIOUS AGENTS IN A SUBJECT” (priority 2015, published 2019).
Read-outs that look alike come from different tables or passages of the source.

Tests used:
Assay type in all cases: cell-based
[1] = system: vanA-positive Enterococcus faecium clinical isolate vanA10; assay: MIC of vancomycin by serial dilution in 96-well plates with or without D-Ala; conditions: for MIC: Enterococcus faecium
Method: (§1) Having established the important role of D-Ala in enhancing the efficacy of vancomycin against vancomycin-resistant S. coelicolor cells, next, its effect on the resistance of clinical isolates of Enterococcus faecium, which were vanA-positive strains, was assessed. MIC values were calculated by testing a serial dilution of vancomycin in the presence or absence of D-Ala in triplicate (Table 3).
(§2) The MIC was determined by measurement of the OD600 or by visual assessment, following the Clinical Laboratory and Standards Institute (CLSI) guidelines. […] This value compares to intermediate instead of total resistance. The strains were serially diluted in a 96-well plate and growth was assayed at OD600. The steps down refer to CSLI guidelines for clinical MIC measurements.
(§3) Five vanA-positive Enterococcus faecium strains were collected in 2011 and 2014 from patients in the Erasmus University Medical Centre, Rotterdam, The Netherlands. Presence of the vanA gene was confirmed by real-time PCR with the LIGHTCYCLER® 480 instrument (Roche Diagnostics, Almere, The Netherlands) with the primers vanA F1 and vanA R1, and the vanA probe. The resistance profile of these isolates was determined as MIC values using the VITEK II (BioMerieux) system AST-P586. To determine the MIC of vancomycin against E. faecium, cells were grown overnight on Trypticase Soy Agar (TSA) blood agar plates (Becton Dickinson, Breda, The Netherlands) and suspended in 0.9% NaCl until OD600 0.5 (±0.05). Of this suspension, 10 μl was dispensed into wells of sterile flat-bottom 96-well polystyrene tissue culture plates (Greiner Bio-One, Alphen aan Den Rijn, The Netherlands) containing serial dilutions of vancomycin in 190 μl of a 1:1 mixture of Fetal Bovine Serum (FBS) (Gibco, Bleiswijk, The Netherlands) and Iscove's Modified Dulbecco's Medium (IMDM) (without phenolred, Gibco, Bleiswijk, The Netherlands), and in the presence or absence of 50 mM D-alanine (Alfa Aesar, Ward Hill, Mass., USA). Plates were incubated for 18-24 hours at 37° C. and MIC values determined visually following the CLSI guidelines, or by spectrophotometer at 600 nm.

[2] = system: vanA-positive Enterococcus faecium clinical isolate vanA2; assay: as above; conditions: for MIC: Enterococcus faecium
Method: as §1, §2, §3

[3] = system: vanA-positive Enterococcus faecium clinical isolate vanA1; assay: as above; conditions: for MIC: Enterococcus faecium
Method: as §1, §2, §3

[4] = system: vanA-positive Enterococcus faecium clinical isolate vanA3; assay: as above; conditions: for MIC: Enterococcus faecium
Method: as §1, §2, §3

[5] = system: vanA-positive Enterococcus faecium clinical isolate vanA4; assay: as above; conditions: for MIC: Enterococcus faecium
Method: as §1, §2, §3

[6] = system: S. coelicolor LAG2 ΔvanX (LAG4); assay: MIC of vancomycin on MM agar plates with added D-Ala; conditions: Streptomyces coelicolor
From the text: VanX effectively eradicates the D-Ala-D-Ala dipeptide, thereby counteracting the accumulation of wild-type precursors and supporting vancomycin resistance (Lessard and Walsh, 1999; Tan et al., 2002). Therefore, a vanX null mutant was created using a similar strategy as for ddl, replacing the coding region of vanX by the apramycin resistance cassette aacC4. The mutant was created in both the parental strain S. coelicolor M145 and in its ddl suppressor mutant LAG2, generating LAG3 (M145 ΔvanX) and LAG4 (M145 Δddl ΔvanX vanS::IS466A), respectively.
LAG4 produced 20% wt precursors prior to the addition of D-Ala.
Escherichia coli strains JM109 (Sambrook et al., 1989) and ET12567 (Kieser et al., 2000) were used for routine cloning procedures and for extracting non-methylated DNA, respectively. Cells of E. coli were grown in Luria-Berani broth (LB) at 37° C. Streptomyces coelicolor A3(2) M145 was the parent of all mutants described in this work. All media and routine Streptomyces techniques were carried out as described (Kieser et al., 2000). SFM (soy flour mannitol) agar plates were used for propagating S. coelicolor strains and to prepare spore suspensions. For liquid-grown cultures, S. coelicolor mycelia were grown in normal minimal media with phosphate (NMMP) supplemented with 1% (w/v) mannitol as the sole carbon source. The MIC of vancomycin against S. coelicolor M145 and its mutant derivatives were determined by growth on minimal media (MM) agar plates supplemented with 1% mannitol as the sole carbon source, and 0, 2, 4, 8, 16, 32, 64, 128, 256 or 512 μg/ml vancomycin, in combination with 0, 1, 5, 10 or 50 mM of D-Ala or L-Ala. The vanX deletion mutants have been tested with 1, 5, 10, 50 and 100 μM D-Ala and L-Ala.

CN[C@H](CC(C)C)C(=O)N[C@H]1C(=O)N[C@@H](CC(N)=O)C(=O)N[C@H]2C(=O)N[C@H]3C(=O)N[C@H](C(=O)N[C@H](C(=O)O)c4cc(O)cc(O)c4-c4cc3ccc4O)[C@H](O)c3ccc(c(Cl)c3)Oc3cc2cc(c3O[C@@H]2O[C@H](CO)[C@@H](O)[C@H](O)[C@H]2O[C@H]2C[C@](C)(N)[C@H](O)[C@H](C)O2)Oc2ccc(cc2Cl)[C@H]1O [vancomycin] was tested, and the MIC ([1]; vanA10, 50 mM D-Ala, read-out: MIC with 50 mM D-Ala) was 16 µg/mL, the MIC ([1]; vanA10, read-out: MIC without D-Ala) was 2050 µg/mL and the “reduction of MIC” value ([1]; vanA10, 50 mM D-Ala, approximation based on 2-fold dilution steps) was ~128. The MIC ([2]; vanA2, 50 mM D-Ala, read-out: MIC with 50 mM D-Ala) was 256 µg/mL, the MIC ([2]; vanA2, read-out: MIC without D-Ala) was 4100 µg/mL and the “reduction of MIC” value ([2]; vanA2, 50 mM D-Ala, approximation based on 2-fold dilution steps) was ~16. The MIC ([3]; vanA1, 50 mM D-Ala, read-out: MIC with 50 mM D-Ala) was 256 µg/mL, the MIC ([3]; vanA1, read-out: MIC without D-Ala) was 4100 µg/mL and the “reduction of MIC” value ([3]; vanA1, 50 mM D-Ala, approximation based on 2-fold dilution steps) was ~16. The MIC ([4]; vanA3, 50 mM D-Ala, read-out: MIC with 50 mM D-Ala) was 128 µg/mL, the MIC ([4]; vanA3, read-out: MIC without D-Ala) was 4100 µg/mL and the “reduction of MIC” value ([4]; vanA3, 50 mM D-Ala, approximation based on 2-fold dilution steps) was ~32. The MIC ([5]; vanA4, 50 mM D-Ala, read-out: MIC with 50 mM D-Ala) was 128 µg/mL, the MIC ([5]; vanA4, read-out: MIC without D-Ala) was 4100 µg/mL and the “reduction of MIC” value ([5]; vanA4, 50 mM D-Ala, approximation based on 2-fold dilution steps) was ~32. For the same compound, the MIC ([6]; read-out: MIC of vancomycin, LAG2 ΔvanX, 0 μM D-Ala) was 64 µg/mL, the MIC ([6]; read-out: MIC of vancomycin, LAG2 ΔvanX, 10 μM D-Ala) was 32 µg/mL and the MIC ([6]; read-out: MIC of vancomycin, LAG2 ΔvanX, 50 μM D-Ala) was 8 µg/mL. It also gave an MIC ([6]; read-out: MIC of vancomycin, LAG2 ΔvanX, 100 μM D-Ala) of 2 µg/mL.
